Reference: patent publication US6403343B2, “Method of producing a taxane-type diterpene and a method of obtaining cultured cells which produce the taxane-type dilterpene at a high rate” (Mitsui Chemicals, Inc., priority 1993, dated 2002)

Assays:
[1] = system: cultured cells of Taxus baccata LINN; assay: Taxane-type diterpene yield and cell yield, shake culture of Taxus baccata cells with a jasmonic acid (or jasmone) added; type: cell-based; details: for taxol inducing activity: see Comparative Example No. 24
[2] = system: cultured cells of Taxus baccata LINN; assay: Growth rate and taxane yield, 21-day shake culture of Taxus baccata cells with heavy metal compound, amine, antiethylene agent or Ethrel added; type: cell-based
Description: (§1) One gram (fresh weight) of the callus was inoculated to an Erlenmeyer flask containing 20 ml of liquid Woody Plant Medium to which the above-mentioned component was added to give the same concentration and shake culture was carried out with a rotary shaker (amplification of 25 mm, 100 rpm) and the callus was subcultured in every 21 days to accelerate the growth rate thereof.
Then shake culture was carried out at 25° C. for 21 days.
(§2) After completing the culture, cultured cells of Taxus baccata LINN were harvested by filtration and lyophilized, then the dry weight was measured to obtain the growth rate thereof. Taxane-type diterpenes were extracted from the dried callus with methanol and the like, and they were determined by comparing with standard taxol, cephalomannine, and baccatin III using high performance liquid chromatography to measure the yields of the taxane-type diterpenes.
as §1
One gram (fresh weight) of the cultured cells thus obtained was inoculated to an Erlenmeyer flask containing 20 ml of liquid Woody Plant Medium to which the above-mentioned component had been added to give the same concentration, then spermidine was added to it as amine to give the final concentration of 10^−9M-1M. Then shake culture was carried out at 25° C. for 21 days.
as §2, with “cells” for “callus”, “diterpene.” for “diterpenes.”
as §1, with “component had been” for “component was”
One gram (fresh weight) of the cultured cells thus obtained was inoculated to an Erlenmeyer flask containing 20 ml of liquid Woody Plant Medium to which the above-mentioned component had been added to give the same concentration, and shake culture was carried out at 25° C. for 14 days.

[3] = 0.01 μM added on 14th day, 7 more days
[4] = 0.1 μM added on 14th day, 7 more days
[5] = 1 μM added on 14th day, 7 more days
[6] = 10 μM added on 14th day, 7 more days
[7] = 50 μM added on 14th day, 7 more days
[8] = 100 μM added on 14th day, 7 more days
[9] = 250 μM added on 14th day, 7 more days
[10] = 500 μM added on 14th day, 7 more days
[11] = 1000 μM added on 14th day, 7 more days
[12] = 2×10^−6 M added 5 times at 4 days' intervals from day 0, total 10^−5 M
[13] = 10^−1 M added at start, 21 days
[14] = 10^−2 M added at start, 21 days
[15] = 10^−3 M added at start, 21 days
[16] = 10^−4 M added at start, 21 days
[17] = 10^−5 M added at start, 21 days
[18] = 10^−5 M added on 7th day, 14 more days
[19] = 10^−5 M added on 14th day, 7 more days
[20] = 10^−5 M added on 18th day, 3 more days
[21] = 10^−5 M at start + methyl jasmonate 10^−4 M on 14th day
[22] = 10^−5 M at start + methyl jasmonate 10^−4 M on 14th day, oxygen 10% in the gas phase
[23] = 10^−5 M at start, oxygen 10% in the gas phase
[24] = 10^−6 M added at start, 21 days
[25] = 10^−7 M added at start, 21 days
[26] = 10^−8 M added at start, 21 days
[27] = 10^−9 M added at start, 21 days

CC/C=C\C[C@H]1C(=O)CC[C@@H]1CC(=O)O [jasmonic acid]
cell yield [1, 3]: 12.2 g/L | yield of baccatin III [1, 3]: 0.3 mg/L | yield of cephalomannine [1, 3]: 0.6 mg/L | yield of taxol [1, 3]: 2.2 mg/L | cell yield [1, 4]: 12.2 g/L | yield of baccatin III [1, 4]: 0.3 mg/L | yield of cephalomannine [1, 4]: 0.6 mg/L | yield of taxol [1, 4]: 3.4 mg/L | cell yield [1, 5]: 11.6 g/L | yield of baccatin III [1, 5]: 0.3 mg/L | yield of cephalomannine [1, 5]: 0.8 mg/L | yield of taxol [1, 5]: 5.9 mg/L | cell yield [1, 6]: 11.5 g/L | yield of baccatin III [1, 6]: 0.5 mg/L | yield of cephalomannine [1, 6]: 2.6 mg/L | yield of taxol [1, 6]: 8.3 mg/L | cell yield [1, 7]: 11.4 g/L | yield of baccatin III [1, 7]: 2.5 mg/L | yield of cephalomannine [1, 7]: 2.2 mg/L | yield of taxol [1, 7]: 10.2 mg/L | cell yield [1, 8]: 10.3 g/L | yield of baccatin III [1, 8]: 7.2 mg/L | yield of cephalomannine [1, 8]: 3.0 mg/L | yield of taxol [1, 8]: 12.8 mg/L | cell yield [1, 9]: 10.1 g/L | yield of baccatin III [1, 9]: 10.6 mg/L | yield of cephalomannine [1, 9]: 2.7 mg/L | yield of taxol [1, 9]: 14.7 mg/L | cell yield [1, 10]: 10.2 g/L | yield of baccatin III [1, 10]: 12.0 mg/L | yield of cephalomannine [1, 10]: 1.1 mg/L | yield of taxol [1, 10]: 11.1 mg/L | cell yield [1, 11]: 6.7 g/L | yield of baccatin III [1, 11]: 1.2 mg/L | yield of cephalomannine [1, 11]: 0.5 mg/L | yield of taxol [1, 11]: 1.2 mg/L

CCC=CCC1=C(C)CCC1=O [Comparative Example 24]
cell yield ([1]; jasmone 0.1 μM): 12.2 g/L | yield of baccatin III ([1]; jasmone 0.1 μM, cell + medium): 0.3 mg/L | yield of cephalomannine ([1]; jasmone 0.1 μM, cell + medium): 1.2 mg/L | yield of taxol ([1]; jasmone 0.1 μM, cell + medium): 3.0 mg/L | cell yield ([1]; jasmone 1 μM): 12.1 g/L | yield of baccatin III ([1]; jasmone 1 μM, cell + medium): 0.4 mg/L | yield of cephalomannine ([1]; jasmone 1 μM, cell + medium): 1.0 mg/L | yield of taxol ([1]; jasmone 1 μM, cell + medium): 3.2 mg/L | cell yield ([1]; jasmone 10 μM): 11.3 g/L | yield of baccatin III ([1]; jasmone 10 μM, cell + medium): 0.3 mg/L | yield of cephalomannine ([1]; jasmone 10 μM, cell + medium): 0.8 mg/L | yield of taxol ([1]; jasmone 10 μM, cell + medium): 3.3 mg/L | cell yield ([1]; jasmone 100 μM): 11.3 g/L | yield of baccatin III ([1]; jasmone 100 μM, cell + medium): 0.3 mg/L | yield of cephalomannine ([1]; jasmone 100 μM, cell + medium): 0.6 mg/L | yield of taxol ([1]; jasmone 100 μM, cell + medium): 3.2 mg/L | cell yield ([1]; jasmone 1000 μM): 10.9 g/L | yield of baccatin III ([1]; jasmone 1000 μM, cell + medium): 0.2 mg/L | yield of cephalomannine ([1]; jasmone 1000 μM, cell + medium): 0.8 mg/L | yield of taxol ([1]; jasmone 1000 μM, cell + medium): 2.5 mg/L

CC/C=C\CC1=C(C)CCC1=O [jasmone, reference compound]
taxol inducing activity [1]: low

NCCCCNCCCN [spermidine]
growth rate ([2]; 1 M added at start, 21 days): 1.4 times | total yield of taxane ([2]; 1 M added at start, 21 days): 0.21 mg/L | yield of baccatin III ([2]; 1 M added at start, 21 days): 0.10 mg/L | yield of cephalomannine ([2]; 1 M added at start, 21 days): 0.03 mg/L | yield of taxol ([2]; 1 M added at start, 21 days): 0.08 mg/L | growth rate [2, 12]: 2.9 times | total yield of taxane [2, 12]: 27.74 mg/L | yield of baccatin III [2, 12]: 6.30 mg/L | yield of cephalomannine [2, 12]: 6.01 mg/L | yield of taxol [2, 12]: 15.43 mg/L | growth rate [2, 13]: 2.1 times | total yield of taxane [2, 13]: 3.35 mg/L | yield of baccatin III [2, 13]: 0.41 mg/L | yield of cephalomannine [2, 13]: 1.00 mg/L | yield of taxol [2, 13]: 1.94 mg/L | growth rate [2, 14]: 2.0 times | total yield of taxane [2, 14]: 7.13 mg/L | yield of baccatin III [2, 14]: 0.82 mg/L | yield of cephalomannine [2, 14]: 2.42 mg/L | yield of taxol [2, 14]: 3.89 mg/L | growth rate [2, 15]: 2.9 times | total yield of taxane [2, 15]: 17.31 mg/L | yield of baccatin III [2, 15]: 2.63 mg/L | yield of cephalomannine [2, 15]: 4.59 mg/L | yield of taxol [2, 15]: 10.09 mg/L | growth rate [2, 16]: 3.1 times | total yield of taxane [2, 16]: 22.23 mg/L | yield of baccatin III [2, 16]: 2.78 mg/L | yield of cephalomannine [2, 16]: 6.49 mg/L | yield of taxol [2, 16]: 12.96 mg/L | growth rate [2, 17]: 3.1 times | total yield of taxane [2, 17]: 33.17 mg/L | yield of baccatin III [2, 17]: 6.59 mg/L | yield of cephalomannine [2, 17]: 7.30 mg/L | yield of taxol [2, 17]: 19.28 mg/L | growth rate [2, 18]: 2.9 times | total yield of taxane [2, 18]: 27.45 mg/L | yield of baccatin III [2, 18]: 6.08 mg/L | yield of cephalomannine [2, 18]: 6.13 mg/L | yield of taxol [2, 18]: 15.24 mg/L | growth rate [2, 19]: 2.9 times | total yield of taxane [2, 19]: 20.98 mg/L | yield of baccatin III [2, 19]: 5.46 mg/L | yield of cephalomannine [2, 19]: 5.32 mg/L | yield of taxol [2, 19]: 10.20 mg/L | growth rate [2, 20]: 3.0 times | total yield of taxane [2, 20]: 11.48 mg/L | yield of baccatin III [2, 20]: 2.95 mg/L | yield of cephalomannine [2, 20]: 2.90 mg/L | yield of taxol [2, 20]: 5.63 mg/L | growth rate [2, 21]: 2.6 times | total yield of taxane [2, 21]: 50.25 mg/L | yield of baccatin III [2, 21]: 18.96 mg/L | yield of cephalomannine [2, 21]: 9.74 mg/L | yield of taxol [2, 21]: 21.55 mg/L | growth rate [2, 22]: 2.6 times | total yield of taxane [2, 22]: 57.89 mg/L | yield of baccatin III [2, 22]: 19.65 mg/L | yield of cephalomannine [2, 22]: 8.57 mg/L | yield of taxol [2, 22]: 29.67 mg/L | growth rate [2, 23]: 2.7 times | total yield of taxane [2, 23]: 40.29 mg/L | yield of baccatin III [2, 23]: 13.43 mg/L | yield of cephalomannine [2, 23]: 7.81 mg/L | yield of taxol [2, 23]: 19.05 mg/L | growth rate [2, 24]: 3.2 times | total yield of taxane [2, 24]: 23.16 mg/L | yield of baccatin III [2, 24]: 3.61 mg/L | yield of cephalomannine [2, 24]: 6.04 mg/L | yield of taxol [2, 24]: 13.51 mg/L | growth rate [2, 25]: 3.1 times | total yield of taxane [2, 25]: 18.89 mg/L | yield of baccatin III [2, 25]: 1.34 mg/L | yield of cephalomannine [2, 25]: 5.79 mg/L | yield of taxol [2, 25]: 11.76 mg/L | growth rate [2, 26]: 3.1 times | total yield of taxane [2, 26]: 4.39 mg/L | yield of baccatin III [2, 26]: 0.66 mg/L | yield of cephalomannine [2, 26]: 1.74 mg/L | yield of taxol [2, 26]: 1.99 mg/L | growth rate [2, 27]: 2.9 times | total yield of taxane [2, 27]: 1.21 mg/L | yield of baccatin III [2, 27]: 0.31 mg/L | yield of cephalomannine [2, 27]: 0.58 mg/L | yield of taxol [2, 27]: 0.32 mg/L

methyl jasmone [reference compound]
taxol inducing activity [1]: low
